Assays:
[1] = system: human-derived neuroblast (Neuroblastoma) SH-SY5Y strain; experiment: fluorescence measurement of intracellular/extracellular ATP concentration in SH-SY5Y cultured cells; format: cell-based; conditions: for intracellular ATP production (fluorescence intensity): in the cells
Protocol: After the addition of Specimen 1 to cultured cells of a human-derived neuroblast (Neuroblastoma) SH-SY5Y strain, fluorescence measurement of an intracellular/extracellular ATP concentration was performed.

[2] = system: astrocytes, one of glial cells of the central nerve system; experiment: fluorescence measurement of ATP amount in cultured astrocytes; format: cell-based; conditions: 1 μM
Protocol: Specimen 1 was added to astrocytes, one of glial cells of the central nerve system, after culturing and the fluorescence measurement results are shown in FIG. 2A and FIG. 2B.

[3] = system: human glioma U251 cells (Sig1-R transfected cells); experiment: intracellular ATP concentration in human glioma U251 cells; format: cell-based; conditions: fluorescence measurement 6 hours after administration
Protocol: To cultured human glioma US251 cells (Sig1-R transfected cells) were added Specimens 1 and 2, respectively and intercomparison was performed between intracellular ATP concentration after addition and that without addition (Cont.). […] It is to be noted that fluorescence measurement was performed 6 hours after the administration of the specimens.

hippocampal neurons [4] = experiment: cultured hippocampal neurons, initial stage of growth: axons, dendrites, excitatory synapses; format: cell-based, ICR mouse
Protocol: Hippocampal neurons were collected from a juvenile (0 day after birth) ICR mouse brain and neurons were cultured on a culture dish.
Specimen 1 was added once to the cells in the initial stage of growth (on culture day 1) and after three days (on culture day 4), the number of neuron axons, dendrites, and growing synapses of the hippocampal neurons (neurons) was quantified. Specimen 1 (0.1 μM, 0.3 μM, 1.0 μM) was added once on culture day 1. Axon and Dendrite were immunostained with a tau antibody and a MAP2 antibody, respectively, three days after the addition (on culture day 4) and morphology thereof was observed.
An experiment was performed by drawing concentric circles (not shown) at an interval of 10 μm with a soma as a center and the number of axons crossing the circles was measured.
The dendrite was immunostained with a MAP2 antibody on culture day 4 and the number of branches of the dendrite was quantified. An experiment was performed by drawing concentric circles (not shown) at an interval of 10 μm with a soma as a center and the number of dendrites crossing the circles was counted.
Then, excitatory synapses on culture 14 day were immunostained with a VGLUT1 antibody and the number of synapses was quantified.

hippocampal neurons [5] = experiment: mature cultured hippocampal neurons: dendrite branches; format: cell-based, ICR mouse
Protocol: As in Example 4, hippocampal neurons were collected from a juvenile (0 day after birth) ICR mouse brain and the neurons were cultured on a culture dish.
Specimen 1 was administered once to the mature cultured hippocampal cells (on culture day 11) and three days later (on culture day 14), the neuron axons and dendrites of the hippocampal neurons (neurons) were observed.
Concentric circles were drawn at an interval of 10 μm with a soma as a center and the number of dendrites crossing the circles was measured.

[6] = system: mitochondrial calcium concentration; experiment: mitochondrial calcium concentration in brain slice preparations exposed to 80K ACSF, 24 h after subcutaneous administration; format: in vivo, mouse (C57B/6NL)
Protocol: (§1) Formation of brain slice preparation and measurement of calcium concentration: Used was a whole brain half-cut preparation obtained by cutting a whole brain slice (300 μm) of a mouse (C57B/6NL), pretreated with Specimen 1 for 24 hours by subcutaneous administration, at a median line. […] The resulting preparation was placed in a chamber provided on a stage of an inverted fluorescence microscope (Olympus IX71), covered with a piece of black cotton, fixed with a platinum ring, and refluxed (70 ml/hr) in ACSF aerated with 95% O2 and 5% CO2. A fluorescent image of the preparation was acquired using a 4× objective lens and respective images of the hippocampal ventral part and cerebral cortex temporal region were obtained in one screen. For the measurement of a mitochondrial calcium concentration, a change in intensity of red fluorescence (>600 nm) caused by excitation light at 580 nm was determined and for the measurement of a cytoplasmic calcium concentration, a ratio of fluorescence (>500 nm) between excitation at 360 nm and that at 380 nm was determined. A hippocampal CA1 site and a cerebral cortex were used as two regions of interest (ROI).
(§2) In water was dissolved β-NMN to give a 10 mg/kg, 30 mg/kg, or 100 mg/kg solution; Specimen 1 was dissolved in an alcohol to give a solution of 1 mg/ml and then the resulting solution was diluted with water to give a 0.01 mg/kg, 0.1 mg/kg or 1.0 mg/kg solution; and they were subcutaneously administered to mice 24 hours before the formation of the preparation (0.1 ml/10 g).
(§3) In the present test, an operation of exposing the brain preparations formed from mice administered with two drugs having respective concentrations to isotonic 80 mM KCl-ACSF (artificial cerebrospinal fluid) for 5 minutes and then returning them in normal ACSF for 5 minutes was performed three successive times to give a severe calcium load to the preparations. Variations in cytoplasmic and mitochondrial calcium concentrations at that time were measured.
FIG. 31A to FIG. 32C show the quantification results of the effects of β-NMN and Specimen 1 (TND1128) at each concentration. In FIG. 31A to FIG. 32C, FIG. 31A and FIG. 32A show the results of calculating a mitochondrial calcium concentration, as AUC (Area under the curve), for 35 minutes from 5 minutes after starting of the experiment by administration to three times exposure to 80K-ACSF and 5-minute washing (refer to FIG. 37). FIG. 31B. FIG. 31C, FIG. 32B and FIG. 32C show the drug effects on 5-minute 80K administration and 5-minute subsequent washing (1st: from 5 minutes to 15 minutes, 2nd: from 15 minutes to 25 minutes, and 3rd: from 25 minutes to 35 minutes) in the cerebral cortex (CTX) and the hippocampus (CA1), respectively (refer to FIG. 37). A significant difference test was performed using Tukey's method.

[7] = system: cytoplasmic calcium concentration; experiment: cytoplasmic calcium concentration in brain slice preparations exposed to 80K ACSF, 24 h after subcutaneous administration; format: in vivo, mouse (C57B/6NL)
Protocol: as §1, §2, §3

SIRT1 = SIRT1 in treated nematode (preliminary experiment); format: in vivo; conditions: nematode treated for 24 hours
[8] = lipophilicity, hydrophobicity and stability; format: physicochemical
[9] = system: intracerebral hemorrhage model rats; experiment: intracerebral hemorrhage model rats, amount of exercise; format: in vivo, Wistar rats; conditions: 100 μg/kg injected into the brain spot one hour after collagenase; hemorrhage day 1 and one week after
Protocol: Intracerebral hemorrhage model rats were prepared by making a small hole into the skull of adult Wistar rats (weight: from 200 to 230 g) under inhalation anesthesia, administering 1.2 μl of a physiological saline to the right brain striatum in Control group and a physiological saline comprising 0.24 U collagenase (type IV) to that of a hemorrhage group.
In order to confirm the brain cell protective action of Specimen 4 for the intracerebral hemorrhage model rats, 100 μg/kg of Specimen 4 was injected into a spot (white lozenge in the drawing) one hour after administration of collagenase, and exercise footprints of the rat were quantitatively measured. (A: Control, B: Hemorrhage group. Pay attention to color change (to black) after hemorrhage).
For the measurement of the amount of exercise, the moving image of the rats was photographed for 5 minutes. The free movement (exercise distance and exercise speed) during the latter 3 minutes of the photographing time was analyzed.

[10] = 0.3 μM and 1.0 μM, culture day 4

CCn1c2nc(=O)n(C)c(=O)c-2cc2ccccc21 [Specimen 1]
intracellular ATP production (fluorescence intensity) ([1]; 1 μM, after 12 hours): the effect disappears after 12 hours | intracellular ATP production (fluorescence intensity) ([1]; 1 μM, immediately after addition): an increase in ATP production (increase in fluorescence intensity) is observed for 5 hours | extracellular ATP production / ATP concentration ([1]; 1 μM, outside the cells): an increase in ATP production is observed for 5 hours | morphological change of the cultured cells ([1]; treatment with the specimen): no morphological change of the cultured cells | ATP amount in the glial cells ([2]; 12 hours and 24 hours after administration): significantly increased | extracellular ATP amount ([2]; astrocytes): shows a similar tendency | ATP production amount (intracellular ATP concentration vs without addition) [3]: significantly increased the ATP production amount | drug efficacy on axons at 0.3 μM and 1.0 μM (hippocampal neurons [4]; [10]): almost similar maximum drug efficacy | drug efficacy on dendrites at 0.3 μM and 1.0 μM (hippocampal neurons [4]; [10]): almost similar maximum drug efficacy | number of excitatory synapses (hippocampal neurons [4]; 0.3 μM, VGLUT1 antibody, culture day 14): significantly increased the number of excitatory synapses to the maximum | dendrite extension and number of branches (hippocampal neurons [4]; 0.1, 0.3, 1.0 μM added once on culture day 1, MAP2 antibody, culture day 4): concentration-dependently extended the dendrite and increased the number of branches thereof | elongation/growth of neuron axons and number of branches (hippocampal neurons [4]; 0.1, 0.3, 1.0 μM added once on culture day 1, tau antibody, culture day 4): concentration-dependently increases the elongation/growth of neuron axons and the number of branches | number of dendrites in mature cultured cell (hippocampal neurons [5]; 0.3 μM and 1 μM, administered culture day 11, MAP2 antibody culture day 14): the number of dendrites tends to increase | increase in the number of dendrite branches, mature cells compared with culture day 4 (hippocampal neurons [5]; administered culture day 11, observed culture day 14): an increase in the number of branches was not so more marked than that caused by the drug efficacy observed in the cells on culture day 4 | physiological response of the preparations under 80K-ACSF stimulation (mitochondrial and cytoplasmic Ca2+ variations) ([6]; 100 mg/kg β-NMN, 1 mg/kg Specimen 1): the preparations can maintain a markedly stable physiological response | mitochondrial protective function / function stabilizing effect ([6]; 24 hours after administration): significant mitochondrial function stabilizing effect | effective amount ([6]; s.c. 24 h pretreatment): ≤ 1.0 mg/kg | strength of mitochondrial Ca2+ concentration suppressing effect relative to β-NMN, judged from the effective concentration ([6]; s.c. 24 h pretreatment): 100 times | mitochondrial calcium concentration as AUC, cerebral cortex (CTX) and hippocampus (CA1) ([6]; s.c. 24 h pretreatment, within the dose range studied, Tukey's method): a dose response relationship | mitochondrial Ca2+ increase on three times 80K ACSF exposure (time course) ([6]; s.c. 24 h pretreatment, β-NMN 10, 30, 100 mg/kg, Specimen 1 0.01, 0.1, 1.0 mg/kg): dose-dependently suppress a mitochondrial Ca^2+ increase | effect on drastic increase in cytoplasmic Ca2+ concentration caused by 80K-ACSF ([7]; s.c. 24 h pretreatment): no significant effect | quantified cytoplasmic Ca2+ (AUC), significant difference ([7]; s.c. 24 h pretreatment, all doses): a significant difference was not observed | recovery of cytoplasmic calcium concentration variations at each 80K-ACSF administration ([7]; β-NMN 30 or 100 mg/kg, Specimen 1 0.01 to 1.0 mg/kg, s.c. 24 h): show similar recovery | SIRT1 (SIRT1): significant increase | hydrophobicity [8]: highly hydrophobic | stability ([8]; chemical stability): stable

Cn1c(=O)nc2n(-c3ccccc3)c3cc(Cl)ccc3cc-2c1=O [Specimen 4]
exercise distance [9]: ameliorates an ischemic decrease | exercise speed [9]: ameliorates an ischemic decrease

— patent publication US11806351B2, “Use of coenzyme factor for activation of ATP production in cell” (TERA STONE Co., Ltd, priority 2018, dated 2023)
